Measured values as given in the NIST ThermoML archive (doi:10.1016/j.fluid.2015.09.019).
± gives the expanded uncertainty stated by the source.

What was measured:
[1] = Crystal; DTA
[2] = Molar enthalpy of transition or fusion; conditions: Crystal; DSC

- Normal melting temperature [1]: 107.00 ± 1.1 °C
- Molar enthalpy of transition or fusion [2]: 4.86 ± 0.22 kcal/mol
Compound: CC1=CC(=O)c2ccccc2C1=O [2-methyl-1,4-naphthalenedione]
